The source made the active and inactive calls. The calls are words filed in the database; no cut-off is given here.
Tests used:
INS1 [1] = test: Induction of apoptosis in rat INS1 cells assessed as late apoptotic cells at 1 uM incubated for 36 hrs by Annexin V-FITC/ propidium iodide staining based flow cytometry analysis (reference value: 0.19%); format: functional
[2] = molecular target: T1, Sodium/glucose cotransporter 2 (Homo sapiens) (UniProt P31639); test: Inhibition of human SGLT2 by liquid scintillation counter analysis relative to canagliflozin; settings: concentration not given here
T1 sequence (whole entry): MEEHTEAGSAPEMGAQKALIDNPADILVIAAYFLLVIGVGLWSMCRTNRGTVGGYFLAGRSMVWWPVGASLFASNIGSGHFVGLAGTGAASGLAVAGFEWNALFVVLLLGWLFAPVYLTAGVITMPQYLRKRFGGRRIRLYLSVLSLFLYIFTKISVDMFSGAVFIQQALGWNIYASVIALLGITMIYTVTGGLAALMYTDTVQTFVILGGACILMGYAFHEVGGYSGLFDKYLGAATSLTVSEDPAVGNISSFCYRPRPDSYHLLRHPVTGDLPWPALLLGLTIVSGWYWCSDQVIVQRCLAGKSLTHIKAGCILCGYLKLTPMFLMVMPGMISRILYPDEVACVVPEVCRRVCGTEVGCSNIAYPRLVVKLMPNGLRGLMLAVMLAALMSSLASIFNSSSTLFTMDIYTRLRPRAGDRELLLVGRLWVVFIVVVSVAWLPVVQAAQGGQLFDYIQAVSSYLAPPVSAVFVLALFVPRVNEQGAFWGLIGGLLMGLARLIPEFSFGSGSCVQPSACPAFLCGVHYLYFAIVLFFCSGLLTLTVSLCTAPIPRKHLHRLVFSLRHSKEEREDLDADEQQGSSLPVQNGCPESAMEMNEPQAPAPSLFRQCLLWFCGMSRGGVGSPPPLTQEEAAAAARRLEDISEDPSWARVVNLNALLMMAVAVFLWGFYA

[3] = Cytotoxicity against human MRC5 cells assessed as cell growth inhibition; format: toxicity, cell-based
[4] = Cytotoxicity against human MRC5 cells assessed as cell growth inhibition at 10 uM relative to control; format: toxicity, cell-based; settings: read-out: GI
[5] = Cytotoxicity against HEK293 cells assessed as cell growth inhibition at 10 uM relative to control; format: toxicity, cell-based; settings: human, read-out: GI
[6] = molecular target: Alpha amylase (Homo sapiens) (UniProt P0DUB6); test: Inhibition of alpha amylase (unknown origin) measured after 20 to 25 mins relative to quercetin; settings: time 20-25 min
Alpha amylase (Homo sapiens), sequence (P0DUB6 whole entry, looked up): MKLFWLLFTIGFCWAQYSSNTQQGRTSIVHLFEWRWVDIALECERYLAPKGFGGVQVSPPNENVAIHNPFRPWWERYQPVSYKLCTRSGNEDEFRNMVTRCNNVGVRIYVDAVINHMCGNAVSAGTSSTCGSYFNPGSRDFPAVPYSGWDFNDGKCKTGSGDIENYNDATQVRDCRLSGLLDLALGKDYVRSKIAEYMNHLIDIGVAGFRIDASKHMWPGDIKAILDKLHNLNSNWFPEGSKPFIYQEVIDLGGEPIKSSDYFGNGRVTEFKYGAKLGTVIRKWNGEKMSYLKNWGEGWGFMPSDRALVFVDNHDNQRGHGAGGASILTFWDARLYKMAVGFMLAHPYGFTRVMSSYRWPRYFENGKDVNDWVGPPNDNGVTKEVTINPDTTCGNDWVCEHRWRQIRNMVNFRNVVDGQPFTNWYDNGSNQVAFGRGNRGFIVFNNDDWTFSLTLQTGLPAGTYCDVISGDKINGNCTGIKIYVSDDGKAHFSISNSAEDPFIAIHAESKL

[7] = Cytotoxicity against human WPE1-NA22 cells assessed as cell growth inhibition at 10 uM relative to control; format: toxicity, cell-based; settings: read-out: GI
[8] = Cytotoxicity against human BJ cells assessed as cell growth inhibition at 10 uM relative to control; format: toxicity, cell-based; settings: read-out: GI
INS1 [9] = test: Induction of apoptosis in rat INS1 cells assessed as early apoptotic cells at 1 uM incubated for 36 hrs by Annexin V-FITC/ propidium iodide staining based flow cytometry analysis (reference value: 0.34%); format: functional
[10] = Cytotoxicity against HEK293 cells assessed as cell growth inhibition; format: toxicity, cell-based; settings: human
Mus musculus [11] = test: Antidiabetic activity against high fat diet-STZ-induced diabetic Swiss albino mouse model assessed as insulin resistance by measuring serum TNFalpha level at 0.2 mmol/Kg/day, po administered for 14 days by ELISA method (reference value: 376.50+/-14.50 ng/ml); format: functional; settings: time 14 day
[12] = Cytotoxicity against human MCF-10F cells assessed as cell growth inhibition at 10 uM relative to control; format: toxicity, cell-based; settings: read-out: GI
[13] = Acute toxicity in Swiss albino mouse assessed as effect on motor alterations up to 2000 mg/kg, po administered for 14 days; format: organism-based; settings: in vivo, 336 h, time 14 day
[14] = Half life in Swiss albino mouse plasma at 0.2 mmol/Kg, po measured after 24 hrs by HPLC analysis; format: ADME, organism-based
[15] = Cmax in Swiss albino mouse plasma at 0.2 mmol/Kg, po measured after 24 hrs by HPLC analysis; format: ADME, organism-based; parameters: time 24 hrs, dose 0.2 mmol/Kg, route po
Alpha glucosidase = Alpha glucosidase (Homo sapiens, UniProt O43451+P10253+P14410+Q2M2H8); test: Inhibition of alpha glucosidase (unknown origin) measured after 60 mins; format: protein assay
[16] = Cytotoxicity against human HCN-1A cells assessed as cell growth inhibition at 10 uM relative to control; format: toxicity, cell-based; settings: read-out: GI
[17] = Acute toxicity in Swiss albino mouse assessed as toxic symptoms up to 2000 mg/kg, po administered for 14 days; format: organism-based; settings: in vivo, 336 h, time 14 day
Mus musculus [18] = test: Antioxidant activity against high fat diet-STZ-induced diabetic Swiss albino mouse model assessed as serum SOD level at 0.2 mmol/Kg/day, po administered for 14 days (reference value: 273.01+/- 6.23 U/ml); format: functional; settings: time 14 day
[19] = Acute toxicity in Swiss albino mouse assessed as effect on behavioural change up to 2000 mg/kg, po administered for 14 days; format: organism-based; settings: in vivo, 336 h, time 14 day
Mus musculus [20] = test: Antidiabetic activity against high fat diet-STZ-induced diabetic Swiss albino mouse model assessed as increase in appearance of insulin immunopositive areas in pancreatic sections at 0.2 mmol/kg/day, po administered for 14 days by […] based analysis; format: functional, organism-based; settings: time 14.0 day
[21] = Tmax in Swiss albino mouse plasma at 0.2 mmol/Kg, po measured after 24 hrs by HPLC analysis; format: ADME, organism-based
[22] = Cytotoxicity against human ECT1/E6E7 cells assessed as cell growth inhibition; format: toxicity, cell-based
[23] = Cytotoxicity against human MCF-10F cells assessed as cell growth inhibition; format: toxicity, cell-based

CCOC(=O)C1=C(C)NC(C)=C(C(=O)OCC)C1c1cccc2c1OCO2
Activity (INS1 [1]): 0.15%
inhibition [2]: < 1%
GI50 [3]: 61.8 µM
inhibition at 10 µM [4]: 18.6%
inhibition at 10 µM [5]: 41.3%
inhibition [6]: 47%
inhibition at 10 µM [7]: 26.4%
inhibition at 10 µM [8]: 34.5%
Activity (INS1 [9]): 0.27%
GI50 [10]: 19.7 µM
Activity (Mus musculus [11]): 415.5 ng/mL
inhibition at 10 µM [12]: 28.7%
Activity [13]: Non-Toxic
half-life [14]: 1.9 h
Cmax [15]: 10.1 µM
IC50 (Alpha glucosidase): 4.48 µM
inhibition at 10 µM [16]: 33.1%
Activity [17]: Non-Toxic
Activity (Mus musculus [18]): 236.14 U/ml
Activity [19]: Non-Toxic
Activity (Mus musculus [20]): Active
Tmax [21]: 0.8 h
GI50 [22]: 3.74 µM
GI50 [23]: 171 µM

Reference: ChEMBL document CHEMBL5316297, “Mechanistic Insight of Synthesized 1,4-Dihydropyridines as an Antidiabetic Sword against Reactive Oxygen Species” (J Med Chem, 2023)
